Literature values in patent US20110319467A1, “Absorption Enhancement of Statins and Omega Fatty Acids” (priority 2010, published 2011).

Conditions: single emulsifier

## Polyoxyethylene sorbitan monooleate
  HLB value: about 15
